How the values were obtained:
dog [1] = conditions: Chronic toxicity, beagle, Oral, Feed, dose end: 1 year, group: cholinesterase
mouse = conditions: Combined chronic toxicity/carcinogenicity, b6c3f1, Oral, Feed, dose end: 2 year
rat [2] = conditions: Subchronic oral toxicity in rodents, wistar, Feed, dose end: 86 day
rabbit = conditions: Prenatal developmental toxicity study, himalayan, Oral, Gavage/Intubation, dose end: 18 GD
dog [3] = conditions: Subchronic oral toxicity in nonrodent, beagle, Feed, dose end: 90 day, group: systemic
rat [4] = conditions: Subchronic oral toxicity in rodents, sprague dawley, Feed, dose end: 90 day, group: systemic, systemic / clinical chemistry / alkaline phosphatase (alp/alk) / alkaline phosphatase (alp/alk) + systemic / hematology / mean corpuscular …
dog [5] = conditions: Chronic toxicity, beagle, Oral, Feed, dose end: 1 year, group: systemic
rat [6] = conditions: Combined chronic toxicity/carcinogenicity, sprague dawley, Oral, Feed, dose end: 24 month, group: systemic
rat [7] = conditions: Prenatal developmental toxicity study, sprague dawley, Oral, Gavage/Intubation, dose end: 15 GD
[8] = cholinesterase / cholinesterase / cholinesterase / brain cholinesterase (che) + cholinesterase / cholinesterase / cholinesterase / plasma …
[9] = cholinesterase / cholinesterase / cholinesterase / brain cholinesterase (che) + cholinesterase / cholinesterase / cholinesterase / …
[10] = group: cholinesterase, cholinesterase / cholinesterase / cholinesterase / erythrocyte cholinesterase (che)
[11] = group: systemic, systemic / in life observation / body weight / body weight + systemic / in life observation / body weight / body weight gain + systemic / in…
[12] = group: systemic, systemic / organ weight / adrenal gland / nos
[13] = group: cholinesterase, cholinesterase / cholinesterase / cholinesterase / brain (regional) cholinesterase (che) + cholinesterase / cholinesterase / cholinesterase…
[14] = group: systemic, systemic / pathology microscopic / seminal vesicle / colloid content
[15] = group: maternal, reproductive / reproductive performance / resorptions / resorptions + reproductive / reproductive performance / aborted / aborted + systemic…
[16] = systemic / in life observation / body weight / body weight gain + systemic / clinical chemistry / alanine aminotransferase (alt/sgpt) / …
[17] = systemic / pathology microscopic / liver / hyperplasia + systemic / pathology microscopic / liver / hypertrophy + systemic / clinical …
[18] = systemic / clinical chemistry / gamma glutamyl transferase (ggt) / gamma glutamyl transferase (ggt) + systemic / organ weight / kidney / …
[19] = systemic / hematology / anemia / anemia - hemolytic + systemic / hematology / erythrocyte (rbc) count differential / erythrocyte (rbc) + …
[20] = group: developmental, developmental / developmental malformation / bone / supernumerary + developmental / developmental malformation / bone / unossified
[21] = group: maternal, systemic / in life observation / body weight / body weight gain + systemic / in life observation / clinical signs / salivation + systemic / …

With CCOP(=S)(Oc1cnc(C(C)(C)C)nc1)OC(C)C (configuration not stated) [Tebupirimfos] the LEL (dog [1]; [8]) was 0.005 mg/kg/day, the NEL (dog [1]; [8]) was under 0.005 mg/kg/day and the LOAEL (dog [1]; [9]) was 0.125 mg/kg/day. The NOAEL (dog [1]; [9]) was 0.02 mg/kg/day, the LEL (mouse; [10]) was 0.16 mg/kg/day and the LOAEL (mouse; [10]) was 0.16 mg/kg/day. It also gave an NEL (mouse; [10]) of under 0.16 mg/kg/day, an NOAEL (mouse; [10]) of under 0.16 mg/kg/day and an LOAEL (mouse; [11]) of 38.8 mg/kg/day. For the same molecule, the NOAEL (mouse; [11]) was 4.53 mg/kg/day, the LEL (mouse; [12]) was 0.52 mg/kg/day and the NEL (mouse; [12]) was under 0.52 mg/kg/day. For the same molecule, the LOAEL (rat [2]; [13]) was 1 mg/kg/day, the NEL (rat [2]; [13]) was 0.2 mg/kg/day and the NOAEL (rat [2]; [13]) was 0.3 mg/kg/day. For the same molecule, the LEL (rat [2]; [10]) was 0.3 mg/kg/day, the LOAEL (rat [2]; group: systemic, systemic / in life observation / body weight / body weight gain + systemic / in life observation / food consumption / food consumption) was 3.6 mg/kg/day and the NOAEL (rat [2]; group: systemic, systemic / in life observation / body weight / body weight gain + systemic / in life observation / food consumption / food consumption + …) was 1 mg/kg/day. For the same molecule, the LEL (rat [2]; [14]) was 0.2 mg/kg/day, the NEL (rat [2]; [14]) was under 0.2 mg/kg/day and the LEL (rabbit; [10]) was 0.3 mg/kg/day. The LOAEL (rabbit; [10]) was 0.3 mg/kg/day, the NEL (rabbit; [10]) was 0.1 mg/kg/day and the NOAEL (rabbit; [10]) was 0.1 mg/kg/day. For the same molecule, the LOAEL (rabbit; group: maternal, reproductive / reproductive performance / resorptions / resorptions + reproductive / offspring survival early / live fetuses / live fetuses) was 0.3 mg/kg/day, the LEL (rabbit; group: maternal, reproductive / reproductive performance / resorptions / resorptions + reproductive / offspring survival early / live fetuses / live fetuses…) was 0.3 mg/kg/day and the NEL (rabbit; [15]) was 0.1 mg/kg/day. It also gave an NOAEL (rabbit; [15]) of 0.1 mg/kg/day.
Work on COC(=O)c1c(C(F)F)nc(C(F)(F)F)c(C2=NCCS2)c1CC(C)C [Thiazopyr] yielded an LOAEL (dog [3]; systemic / in life observation / body weight / body weight gain) of 3 mg/kg/day, an NEL (dog [3]; [16]) of 2 mg/kg/day and an NOAEL (dog [3]; [16]) of 2 mg/kg/day. For the same molecule, the LEL (dog [3]; systemic / in life observation / body weight / body weight gain + systemic / clinical chemistry / albumin-globulin ratio / albumin-globulin …) was 3 mg/kg/day, the LEL (rat [4]) was 68 mg/kg/day and the LOAEL (rat [4]) was 68 mg/kg/day. For the same molecule, the NEL (rat [4]) was 6.6 mg/kg/day, the NOAEL (rat [4]) was 6.6 mg/kg/day and the LOAEL (dog [5]; systemic / pathology microscopic / liver / hyperplasia + systemic / pathology microscopic / liver / hypertrophy) was 7.8 mg/kg/day. For the same molecule, the LEL (dog [5]; [17]) was 7.8 mg/kg/day, the NEL (dog [5]; [17]) was 0.8 mg/kg/day and the NOAEL (dog [5]; [17]) was 0.8 mg/kg/day. The LOAEL (rat [6]; [18]) was 44.2 mg/kg/day, the NOAEL (rat [6]; [18]) was 4.4 mg/kg/day and the LEL (rat [6]; [19]) was 5.6 mg/kg/day. It also gave an NEL (rat [6]; [19]) of 0.6 mg/kg/day, an LEL (rat [7]; [20]) of 250 mg/kg/day and an LOAEL (rat [7]; [20]) of 250 mg/kg/day. For the same molecule, the NEL (rat [7]; [20]) was 100 mg/kg/day, the NOAEL (rat [7]; [20]) was 100 mg/kg/day and the LOAEL (rat [7]; [21]) was 250 mg/kg/day. The NEL (rat [7]; [21]) was 10 mg/kg/day, the NOAEL (rat [7]; [21]) was 100 mg/kg/day and the LEL (rat [7]; group: maternal, systemic / organ weight / liver / nos) was 100 mg/kg/day.

Source: EPA's ToxRefDB 2
